According to patent US20100197588A1, “USE OF A PEPTIDE AS A THERAPEUTIC AGENT” (priority 2007, published 2010):
Where no end group is shown, it is not given here.

Legend:
[1] = test system: HIV-1IIIB; test: HIV-1 antiviral assay in CEM-SS cells (MTS readout)
[2] = test system: HCMV strain AD169; test: HCMV plaque formation assay in MRC-5 cells
[3] = test system: Interleukin-2 (IL-2); test: Th1/Th2 cytokine profiling assay, IL-2; conditions: 10 micrograms per ml; Ovalbumin-restimulated Balb/c spleen cells, 72 hours
Text: (§1) The Balb/c mice (originated in 1923, it is a popular strain and is used in many different research disciplines. Also classified as an inbred from the production of 20 or more successive brother-sister matings, the Balb/c mouse is albino and small in size) were immunized on Days 1, 15, and 29 with Ovalbumin (Ovalbumin is the main protein found in egg white, commonly used to stimulate an immunological reaction in test animals) in PBS (5 micrograms/injection). On day 50, spleens of the mice were harvested (3 weeks after last boost with Ovalbumin). […] Thereafter, additional Ovalbumin was added to the cells at 10 micrograms/ml for in vitro restimulation of the cells. 72 hours later, cell supernatants were harvested and assayed using the Becton Dickinson Mouse Th1/Th2 Cytokine CBA Kit. This kit can be used to measure Interleukin-2 (IL-2), Interleukin-4 (IL-4), Interleukin-5 (IL-5), Interferon-γ (IFN-γ), and Tumor Necrosis Factor-α (TNF-α) protein levels in a single sample.

[4] = test system: HUVEC; test: Endothelial tube formation assay; conditions: 10 micrograms per ml, 20 hours, combination peptide 1:peptide 2 0.95 mole:1.05 mole
Procedure: The endothelial tube formation assay is based on the ability of endothelial cells to form three-dimensional capillary-like tubular structures when cultured on a gel of basement membrane extract. […] Pre-labeled HUVEC with Calcein AM were seeded in a 96-well culture plate coated with extracellular metrix (Chemicon international Cat. ECM625) and treated with test peptides—10 micrograms per ml—in full growth medium. Positive control was vehicle only. The endothelial cells were allowed to form tubes for 20 hours and were then examined under an inverted fluorescent microscope. Duplicate wells for each treatment were photographed and quantitatively analyzed for an average tubule length using image analysis software ImageProPlus. Raw data were expressed as average tubule lengths in pixels ±standard deviation. Statistic p values were computed using the Student's t-test.

[5] = test system: Interleukin-4 (IL-4); test: Th1/Th2 cytokine profiling assay, IL-4; conditions: 10 micrograms per ml; Ovalbumin-restimulated Balb/c spleen cells, 72 hours
Text: as §1

[6] = test system: Interleukin-5 (IL-5); test: Th1/Th2 cytokine profiling assay, IL-5; conditions: 10 micrograms per ml; Ovalbumin-restimulated Balb/c spleen cells, 72 hours
Text: as §1

[7] = test system: Primary Human endothelial cells (HUVEC); test: Endothelial cell migration assay; conditions: 10 micrograms per ml, 22 hours
Procedure: Primary Human endothelial cells (HUVEC) were seeded in insert chambers with 3 micrometer pore size of multi-transwell plate for 6 hours at 37° C. in Endothelial Cell Basal Medium (EBM) supplemented with 0.1% bovine serum albumin. Thereafter, designated concentration of testing peptides—10 micrograms per ml—was added in duplicate wells. The endothelia were allowed to migrate for 22 hours at 37° C., then, migrated cells were fixed and stained with Hoechst 33342 dye. Images of 3 fields per insert were taken and the number of migrated cells per field were quantified using the ImageProPlus software. Data were analyzed for the average number of the migrated cells and standard deviation of six data points for each treatment condition. […] Statistic p values were computed using the Student's t-test.

[8] = test system: A549 cells; test: Apoptosis prevention assay (C2 ceramide, Annexin-5); conditions: 10 micrograms per ml, 30 min pretreatment, then C2 ceramide, combination 0.95 mole peptide 1 and 1.05 mole peptide 2
Procedure: Human A549 cells (carcinomic human alveolar basal epithelial cells) were utilized in the experiments employing the Annexin-5 apoptosis assay. […] A549 cells were pretreated for 30 min with test peptides—10 micrograms per ml—followed by the exposure to C2 ceramide.

[9] = test system: hepatitis B virus (HBV) ayw strain; test: HBV experimental assay system, secreted HBV DNA by TaqMan PCR in HepG2-2.2.15 cells; format: cell-based; conditions: 10 micrograms per ml, six days
Text: HepG2-2.2.15 is a stable cell line containing the hepatitis B virus (HBV) ayw strain genome (ATCC Cat. No. CRL-11997). Antiviral compounds blocking any late step of viral replication such as transcription, translation, pregenome encapsidation, reverse transcription, particle assembly and release can be identified and characterized using this cell line. In this assay, an active compound will reduce the production of secreted HBV from cells, measured by utilizing real time quantitative PCR (TaqMan) assay to directly and accurately measure HBV DNA copies.
HepG2-2.2.15 cells were plated in 96-well microtiter plates. After 16-24 hours the confluent monolayer of HepG2-2.2.15 cells was washed and the medium was replaced with complete medium containing test peptides—10 micrograms per ml—in duplicate. […] Six days following the initial administration of the peptides, the cell culture supernatants was collected, treated with pronase and DNAse and then used in a real-time quantitative TaqMan PCR assay. The PCR-amplified HBV DNA was detected in real-time by monitoring increases in fluorescence signals that result from the exonucleolytic degradation of a quenched fluorescence probe molecule that hybridizes to the amplified HBV DNA. […] Antiviral activity was calculated from the reduction in HBV DNA levels (% virus control). […]

[10] = test system: Tumor Necrosis Factor-α (TNF-α); test: Th1/Th2 cytokine profiling assay, TNF-α; conditions: 10 micrograms per ml; Ovalbumin-restimulated Balb/c spleen cells, 72 hours
Text: (§2) The Balb/c mice (originated in 1923, it is a popular strain and is used in many different research disciplines. Also classified as an inbred from the production of 20 or more successive brother-sister matings, the Balb/c mouse is albino and small in size) were immunized on Days 1, 15, and 29 with Ovalbumin (Ovalbumin is the main protein found in egg white, commonly used to stimulate an immunological reaction in test animals) in PBS (5 micrograms/injection). On day 50, spleens of the mice were harvested (3 weeks after last boost with Ovalbumin). […] Thereafter, additional Ovalbumin was added to the cells at 10 micrograms/ml for in vitro restimulation of the cells. 72 hours later, cell supernatants were harvested and assayed using the Becton Dickinson Mouse Th1/Th2 Cytokine CBA Kit. This kit can be used to measure Interleukin-2 (IL-2), Interleukin-4 (IL-4), Interleukin-5 (IL-5), Interferon-γ (IFN-γ), and Tumor Necrosis Factor-α (TNF-α) protein levels in a single sample. The kit performance has been optimized for analysis of physiologically relevant concentrations (μg/ml levels) of specific cytokine proteins in tissue culture supernatants and serum samples.

[11] = test system: Interferon-γ (IFN-γ); test: Th1/Th2 cytokine profiling assay, IFN-γ; conditions: 10 micrograms per ml; Ovalbumin-restimulated Balb/c spleen cells, 72 hours
Text: as §2

[12] = test system: Human Peripheral Blood Mononuclear Cells (PBMC), B cell proliferation; test: B cell proliferation assay (SAC plus Interleukin-2 stimulated PBMC, 3H-thymidine); conditions: 10 micrograms per ml, 3 days
Procedure: Human Peripheral Blood Mononuclear Cells (PBMC) were obtained from normal human donors. The B cell proliferation was induced by stimulation of the cells with the B cell mitogen Staphylococcus aureus Cowans I (SAC) plus Interleukin-2, either in the absence (positive proliferation control), or in the presence of test peptides—10 micrograms per ml—to examine their effects on the B cell response. 10^5/well PBMC were plated in 96-well microtiter plates and assayed in duplicate with the peptides. […] At the end of incubation time, the plates were harvested and the cells counted by liquid scintillation for the incorporation of ^3H-thymidine as a measure of B cell proliferation.

Molecule | antiviral activity of positive control compounds (HIV-1) [1] | antiviral activity of positive control compound (HCMV) [2] | IL-2 spleen cells (% of control) [3] | induction of the tube formation of human endothelial cells [4] | IL-4 spleen cells; TH2 response (% of control) [5] | IL-5 spleen cells; TH2 response (% of control) [6] | induction of the migration of endothelial cells [7] | induction of the ceramide-induced apoptosis on human lung cells [8] | inhibition of HBV replication as compared to the virus control infection [9] | TNF-a spleen cells; TH1 response (% of control) [10] | IFNγ spleen cells; TH1 response (% of control) [11] | induction of the proliferation of specifically stimulated human B-cells [12] | inhibition of the migration of endothelial cells ([7]; combination peptide 1:peptide 2 0.95 mole:1.05 mole)
Cc1cn([C@H]2C[C@H](N=[N+]=[N-])[C@@H](CO)O2)c(=O)[nH]c1=O [AZT] | expected levels of antiviral activity | – | – | – | – | – | – | – | – | – | – | – | –
Nc1nc(O)c2ncn(COC(CO)CO)c2n1 [Ganciclovir] | – | expected levels of antiviral activity | – | – | – | – | – | – | – | – | – | – | –
CC(C)(C)NC(=O)[C@@H]1CN(Cc2cccnc2)CCN1C[C@@H](O)C[C@@H](Cc1ccccc1)C(=O)N[C@H]1c2ccccc2C[C@H]1O [indinavir] | expected levels of antiviral activity | – | – | – | – | – | – | – | – | – | – | – | –
Ac-Met-Trp-Asp-Phe-Asp-Asp-Leu-Asn-Phe-Thr-Gly-Met-Pro-Pro-Ala-Asp-Glu-Asp-Tyr-Ser-Pro-NH2 (Ac-MWDFDDLNFTGMPPADEDYSP-NH2) [peptide 2] | – | – | 63.0 % of control | 32% | 136.3 % of control | 59.3 % of control | 9% | 19.65% | no effect | 90.3 % of control | 59.2 % of control | does not show any induction | –
His-Ser-Asp-Gly-Ile-Phe-Thr-Asp-Ser-Tyr-Ser-Arg-Tyr-Arg-Lys-Gln-Met-Ala-Val-Lys-Lys-Tyr-Leu-Ala-Ala-Val-Leu-Gly-Lys-Arg-Tyr-Lys-Gln-Arg-Val-Lys-Asn-Lys-NH2 (HSDGIFTDSYSRYRKQMAVKKYLAAVLGKRYKQRVKNK-NH2) [peptide 1] | – | – | 0.0 % of control | 36% | 120.1 % of control | 63.0 % of control | – | did not induce | 48.0% | 94.0 % of control | 60.8 % of control | 23.3% | 6%
